Like-named read-outs stand apart in the source and are kept apart here.
Assays:
[1] = target: wild-type human cardiac sodium channel, hNav1.5 (late INa) (Homo sapiens, UniProt Q14524); assay: Late INa screening assay (QPatch whole cell patch clamp); assay type: cell-based
In short: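 Compounds tested at 1 μM final in extracellular solution against tefluthrin (10 μM)-enhanced late current. Automated patch clamp (23-25° C) on HEK293 expressing alpha subunit alone: −120 mV holding, 250 ms depolarization to −20 mV every 10 s. Read-out is percent inhibition of mean current over 225–250 ms.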

hERG potassium channel = hERG potassium channel (Homo sapiens, UniProt Q12809); assay: hERG screening assay (PatchXpress, CHO cells); assay type: cell-based; conditions: % inhibition at 1 μM
Method: Compounds were also tested for their effect to block the hERG K^+ channel.
Compounds were screened to test their activity in blocking the hERG potassium channel at AVIVA Biosciences (San Deigo, Calif., USA). The hERG channel is heterologously expressed in a CHO (Chinese Hamster Ovary) cell line. Cells were maintained with standard tissue culture procedures and stable channel expression was maintained with 500 μg/mL G418 in the culture medium. Cells were harvested for testing on the PatchXpress 7000A automated patch clamp with Accumax (Innovative Cell Technologies, San Diego, Calif.) to isolate single cells.
The following solutions were used for electrophysiological recordings. The external solution contained: 2 mM CaCl2; 2 mM MgCl2; 4 mM KCl; 150 mM NaCl; 10 mM Glucose; 10 mM HEPES (pH 7.4 with 1M NaOH; osmolarity, ˜310 mOsm). The internal solution contained: 140 mM KCl, 10 mM MgCl2, 6 mM EGTA, 5 mM HEPES, 5 mM ATP (pH adjusted to 7.25 with KOH; osmolarity, ˜295 mOsm).
hERG channels were activated when the voltage was first stepped to −50 mV for 300 ms from the −80 mV holding potential and then stepped to +20 mV for 5 seconds. At +20 mV the channels open and then largely inactivate, so the currents are relatively small. Upon returning to −50 mV from +20 mV, hERG currents transiently become much larger as inactivation is rapidly removed and then the channel closes. The first step to −50 mV for 300 ms was used as a baseline for measuring the peak amplitude during the step to −50 mV after channel activation. The peak tail current at −50 mV was measured both under control conditions and after addition of compound, each cell serving as its own control.
All compounds were prepared as 10 mM DMSO stocks in glass vials. Stock solutions were mixed by vigorous vortexing and sonication for about 2 minutes at room temperature. For testing, compounds were diluted in glass vials using an intermediate dilution step in pure DMSO and then further diluted to working concentrations in external solution. Dilutions were prepared no longer than 20 minutes before use.
For the electrophysiological recordings, after achieving the whole-cell configuration, cells were monitored for 90 seconds to assess stability and washed with external solution for 66 seconds. The voltage protocol described above was then applied to the cells every 12 seconds and throughout the whole procedure. Only cells with stable recording parameters and meeting specified health criteria were allowed to enter the compound addition procedure.
External solution containing 0.1% DMSO (vehicle) was applied to the cells first to establish the control peak current amplitude. After allowing the current to stabilize for 3 to 5 minutes, 1 μM and then 10 μM test compounds were applied. Each compound concentration was added 4 times and cells were kept in test solution until the effect of the compound reached steady state or for a maximum of 12 minutes. After addition of test compound, a positive control (1 μM Cisapride) was added and must block >95% of the current for the experiment to be considered valid. Washout in the external solution compartment was performed until the recovery of the current reached steady state.

[2] = Microsomal stability assay, dog; assay type: in vitro ADME; conditions: metabolic stability, dog liver microsomes 0.5 mg/mL, substrate 3 uM
In short: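 Liver microsomes at 0.5 mg/mL protein in 100 mM KPO4 buffer, incubated with 3 uM compound and NADPH-regenerating system, run in duplicate. Samples taken at 2, 12, 25, 45 and 65 min and quenched in MeOH/ACN/water before analysis.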

[3] = % inhibition at 1 μM, read-out: NAv1.5*-LATE-
[4] = percent block of late INa, compound at 1 μM, 10 μM Tefluthrin, HEK293 hNav1.5, read-out: Late INa 1 μM

Chain of wild-type human cardiac sodium channel, hNav1.5 (late INa) (Q14524 whole entry): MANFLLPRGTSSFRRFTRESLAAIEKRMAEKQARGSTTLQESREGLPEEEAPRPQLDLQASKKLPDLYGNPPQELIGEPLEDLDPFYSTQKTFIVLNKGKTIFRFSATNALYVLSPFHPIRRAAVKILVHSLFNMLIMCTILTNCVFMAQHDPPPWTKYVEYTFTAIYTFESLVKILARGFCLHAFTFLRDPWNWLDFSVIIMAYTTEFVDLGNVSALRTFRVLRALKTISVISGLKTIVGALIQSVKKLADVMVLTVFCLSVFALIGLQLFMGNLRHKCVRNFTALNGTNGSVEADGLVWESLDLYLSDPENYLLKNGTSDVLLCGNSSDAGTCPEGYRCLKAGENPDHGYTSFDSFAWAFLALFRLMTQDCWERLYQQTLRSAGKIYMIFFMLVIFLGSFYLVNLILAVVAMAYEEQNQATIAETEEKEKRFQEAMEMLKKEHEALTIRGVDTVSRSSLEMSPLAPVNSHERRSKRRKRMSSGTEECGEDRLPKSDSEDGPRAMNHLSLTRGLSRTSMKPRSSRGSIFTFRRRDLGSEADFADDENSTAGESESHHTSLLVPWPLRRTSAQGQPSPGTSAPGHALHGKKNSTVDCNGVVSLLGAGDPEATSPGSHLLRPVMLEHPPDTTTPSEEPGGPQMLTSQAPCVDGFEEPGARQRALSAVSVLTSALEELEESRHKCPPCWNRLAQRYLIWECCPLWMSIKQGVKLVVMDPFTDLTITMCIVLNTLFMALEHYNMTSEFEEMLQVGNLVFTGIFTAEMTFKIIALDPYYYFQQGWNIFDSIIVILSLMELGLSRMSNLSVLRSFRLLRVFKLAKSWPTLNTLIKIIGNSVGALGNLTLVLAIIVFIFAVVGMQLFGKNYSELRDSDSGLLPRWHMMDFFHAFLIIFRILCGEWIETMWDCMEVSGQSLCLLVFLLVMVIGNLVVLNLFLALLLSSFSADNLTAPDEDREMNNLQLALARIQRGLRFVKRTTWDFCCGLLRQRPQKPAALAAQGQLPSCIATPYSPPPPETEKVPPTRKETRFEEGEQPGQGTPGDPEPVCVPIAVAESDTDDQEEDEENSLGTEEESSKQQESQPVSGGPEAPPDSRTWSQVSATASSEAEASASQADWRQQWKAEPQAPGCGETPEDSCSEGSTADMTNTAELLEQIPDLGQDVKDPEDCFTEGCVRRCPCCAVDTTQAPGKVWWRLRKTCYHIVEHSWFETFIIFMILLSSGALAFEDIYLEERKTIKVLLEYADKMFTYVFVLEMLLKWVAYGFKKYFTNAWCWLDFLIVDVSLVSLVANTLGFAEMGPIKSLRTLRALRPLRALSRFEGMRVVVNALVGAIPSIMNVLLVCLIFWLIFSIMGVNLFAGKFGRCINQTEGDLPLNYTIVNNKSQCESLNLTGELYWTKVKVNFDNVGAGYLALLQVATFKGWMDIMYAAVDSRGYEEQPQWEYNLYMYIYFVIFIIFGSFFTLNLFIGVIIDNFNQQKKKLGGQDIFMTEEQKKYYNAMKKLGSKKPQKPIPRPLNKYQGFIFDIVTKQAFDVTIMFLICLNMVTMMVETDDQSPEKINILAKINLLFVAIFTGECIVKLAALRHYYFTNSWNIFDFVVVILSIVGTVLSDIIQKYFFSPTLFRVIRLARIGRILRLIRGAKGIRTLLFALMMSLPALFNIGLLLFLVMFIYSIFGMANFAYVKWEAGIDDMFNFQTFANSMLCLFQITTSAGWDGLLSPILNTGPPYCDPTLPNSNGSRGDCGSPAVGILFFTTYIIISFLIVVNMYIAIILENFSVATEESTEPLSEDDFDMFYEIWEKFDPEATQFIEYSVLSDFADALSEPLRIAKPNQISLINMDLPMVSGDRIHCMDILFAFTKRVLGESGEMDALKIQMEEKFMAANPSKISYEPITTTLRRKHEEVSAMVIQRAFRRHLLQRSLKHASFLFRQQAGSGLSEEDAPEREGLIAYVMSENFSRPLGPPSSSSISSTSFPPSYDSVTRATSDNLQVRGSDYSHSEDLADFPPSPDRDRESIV
Chain of hERG potassium channel (Q12809 whole entry): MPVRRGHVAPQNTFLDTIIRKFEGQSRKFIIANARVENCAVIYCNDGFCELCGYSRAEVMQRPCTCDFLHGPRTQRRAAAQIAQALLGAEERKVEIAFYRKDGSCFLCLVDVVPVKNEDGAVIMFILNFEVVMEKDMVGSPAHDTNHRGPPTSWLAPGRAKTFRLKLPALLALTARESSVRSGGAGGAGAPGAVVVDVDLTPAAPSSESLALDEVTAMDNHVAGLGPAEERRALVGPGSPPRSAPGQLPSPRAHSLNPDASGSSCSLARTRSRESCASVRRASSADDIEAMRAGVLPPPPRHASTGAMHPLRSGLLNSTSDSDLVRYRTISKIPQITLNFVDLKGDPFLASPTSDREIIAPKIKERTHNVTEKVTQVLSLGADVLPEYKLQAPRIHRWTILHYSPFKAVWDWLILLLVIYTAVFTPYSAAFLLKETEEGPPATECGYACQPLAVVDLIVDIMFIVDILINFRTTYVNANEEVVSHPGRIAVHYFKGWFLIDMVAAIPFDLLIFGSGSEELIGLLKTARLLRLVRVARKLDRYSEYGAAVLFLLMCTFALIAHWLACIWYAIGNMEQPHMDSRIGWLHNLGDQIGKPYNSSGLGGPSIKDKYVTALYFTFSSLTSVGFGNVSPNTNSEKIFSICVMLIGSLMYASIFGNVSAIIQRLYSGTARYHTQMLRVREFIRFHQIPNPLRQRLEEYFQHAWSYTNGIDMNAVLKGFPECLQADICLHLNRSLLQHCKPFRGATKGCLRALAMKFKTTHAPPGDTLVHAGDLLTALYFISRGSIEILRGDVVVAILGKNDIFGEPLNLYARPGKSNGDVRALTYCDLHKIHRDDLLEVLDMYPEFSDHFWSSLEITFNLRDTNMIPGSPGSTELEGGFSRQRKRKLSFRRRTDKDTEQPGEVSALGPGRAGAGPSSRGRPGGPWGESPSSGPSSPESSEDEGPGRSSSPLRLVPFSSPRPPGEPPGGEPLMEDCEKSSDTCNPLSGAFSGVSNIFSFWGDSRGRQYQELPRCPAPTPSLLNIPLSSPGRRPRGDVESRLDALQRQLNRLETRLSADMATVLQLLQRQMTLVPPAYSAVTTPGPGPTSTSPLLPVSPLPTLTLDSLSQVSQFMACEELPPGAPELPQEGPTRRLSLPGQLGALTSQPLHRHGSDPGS

Row | MS Dog THalf [2] [min] | Structure (SMILES) | inhibition at 1 µM [1, 3] [%] | inhibition at 1 µM [1, 4] [%] | HERG* (hERG potassium channel) [%]
1 | 392 | CC1Oc2ccc(-c3ccc(OC(F)(F)F)cc3)cc2C(=O)N1Cc1ncccn1 (centres unmarked) [VIII-7, 2-methyl-3-(pyrimidin-2-ylmethyl)-6-(4-(trifluoromethoxy)phenyl)-2H-benzo[e][1,3]oxazin-4(3H)-one] | 22 | 22 | <10
2 | 157 | O=C1c2cc(-c3ccc(OC(F)(F)F)cc3)ccc2CCN1Cc1ncccn1 [IX-1, 2-(pyrimidin-2-ylmethyl)-7-(4-(trifluoromethoxy)phenyl)-3,4-dihydroisoquinolin-1(2H)-one] | 32 | 32 | 17
3 | 28 | O=c1c2cc(-c3ccc(OC(F)(F)F)cc3)ccc2nnn1Cc1noc(-c2ccccn2)n1 [II-54, 3-((5-(pyridin-2-yl)-1,2,4-oxadiazol-3-yl)methyl)-6-(4-(trifluoromethoxy)phenyl)benzo[d][1,2,3]triazin-4(3H)-one] | 52 | 52 | 23
4 | 284 | O=c1c2cc(-c3ccc(OC(F)(F)F)cc3)ccc2nnn1Cc1noc(C2CC2)n1 [II-14, 3-((5-cyclopropyl-1,2,4-oxadiazol-3-yl)methyl)-6-(4-(trifluoromethoxy)phenyl)benzo[d][1,2,3]triazin-4(3H)-one] | 68 | 68 | <10
5 | 2 | O=c1c2cc(-c3ccc(OC(F)(F)F)cc3)ccc2nnn1CC1(CN2CCOCC2)CC1 [II-40, 3-((1-(morpholinomethyl)cyclopropyl)methyl)-6-(4-(trifluoromethoxy)phenyl)benzo[d][1,2,3]triazin-4(3H)-one] | 48 | 48 | 81

Source: US20150329558A1, “FUSED HETEROCYCLIC COMPOUNDS AS ION CHANNEL MODULATORS” (Gilead Sciences, Inc., priority 2011, published 2015)
